These results are taken from publication PMC7475896, “Ruthenium(II) and Iridium(III) Complexes as Tested Materials for New Anticancer Agents” (Materials, 2020).

Converted amounts (≈) assume the structure as drawn. “Also recorded” adds a separate entry of the source.

A short description of data set [1]: lipophilicity (log P) determination. Format: physicochemical. The method, then: (§1) Determination of log P values, and studies on the interactions of ruthenium(II) (1), iridium(III) complexes (2, 3) with CT-DNA, HSA and GSH, were performed according to the previous procedure published in the paper.
Data set [2] deals with myelomonocytic leukaemia (MV-4-11) cell line. The experiment in a line: in vitro cytotoxicity, MTT assay, MV-4-11. Type of data set: cell-based. As to the method: (§2) The cytotoxicity of the investigated complexes 1–3 was determined by microculture with sulforhodamine B SRB (all adherent cells) and MTT ([3-(4,5-dimethyl(thiazol-2-yl) -2,5-diphenyltetrazoliumbromide)]) (for cells in suspension (leukemia cells)) assays with the following three tumor cell lines: colorectal adenoma (LoVo), myelomonocytic leukemia (MV-4-11), and breast adenocarcinoma (MCF-7), as well as a healthy mouse fibroblast (BALB/3T3) cell line. The cytotoxicity of the compounds was measured using the methods described previously. […] The results for cisplatin, used as a test control, were presented in the form of IC50 value (this is the concentration of the compound causing the inhibition of cell proliferation of 50% of the cell population). The results were calculated from 2 to 3 independent experiments.
For orientation: Tetrazolium assays rely on reduction of a dye to a coloured formazan, in cell work by metabolically active cells.

Data set [3] has as its target T1, human serum albumin (HSA) (Homo sapiens, UniProt P02768).
T1 construct: purchased Sigma-Aldrich Chemie GmbH (Steinheim, Germany)
Kind of data set: HSA conformation by CD spectroscopy. Format: binding. The settings on record: free HSA 56%. The method, then: as §1
(§3) Because plasma albumins can interfere with anticancer compounds and change their biological activity, especially their cytotoxicity effectiveness, it is important to obtain insight into interactions of the analyzed complexes with HSA as a plasma protein. The UV-Vis spectra of HSA with increasing amounts of complexes show increasing of HSA absorbance without any shift (Figure 13 a–c). […] To detect any changes of the microenvironment or the conformations of HSA caused by the analyzed complexes, CD spectroscopy was used (Figure 13e,f). […] The noticeable, spectral changes indicate a partial unfolding of the protein structure, leading to the loss of its stability.
(§4) Figure 13 Changes in UV-Vis absorption spectra of HSA (2 × 10^−5 M) in Tris-HCl/NaCl buffer upon addition of 1 (a), 2 (b) and 3 (c) in different molar ratio and CD spectra of HSA incubated with 1 (d), 2 (e) and 3 (f) in different molar ratio.

Data set [4] deals with T1, human serum albumin (HSA). Kind of data set: HSA binding by UV-Vis spectroscopy. Particulars: HSA 2 × 10^−5 M in Tris-HCl/NaCl buffer. The method, then:
as §1, §3, §4

Data set [5] relates to colorectal adenoma (LoVo) cell line. The experiment in a line: in vitro cytotoxicity, SRB assay, LoVo. Format: cell-based. Particulars: concentration of 10 μg/mL. As to the method:
as §2
Background: In SRB staining, fixed cells bind dye roughly in proportion to their protein.

Data set [6] relates to normal mouse fibroblast (BALB/3T3) cell line. The experiment in a line: in vitro cytotoxicity, SRB assay, normal BALB/3T3. Format: cell-based. Particulars: for Cell viability [%] BALB/3T3: compound concentration 10 μg/mL, normal cell line. As to the method: as §2
The next data set deals with CT-DNA. The experiment in a line: DNA melting test by 3D CD. Format: binding. Particulars: 100 μM CT-DNA, Tris-HCl/NaCl pH 7.2; free CT-DNA Tm 55.2 ± 0.7 °C. The method, then:
The melting profiles of DNA/complex mixtures were recorded on a Jasco J-815 spectropolarimeter (Kettenbrückengasse, Austria) equipped with a CDF-426S/15 Peltier temperature controller. CD melting experiments were performed using 100 μM CT DNA concentration, in the absence and presence of 100 equivalents of complexes (in Tris-HCl/NaCl buffer, pH 7.2). CD melting were performed at 5 °C/min heating rate in the 35–95 °C temperature range. Each spectrum was recorded in the 220–300 nm wavelength range, averaged over three scans and subtracting the buffer baseline. After each temperature change, the system was left to equilibrate for 3 min. From 3D data, we selected the proper wavelength (256 nm) and obtained a classic 2D melting profile (fraction folded vs. temperature). The melting temperatures (Tm) were mathematically calculated by using the curve fitting function in Origin 2020 software (OriginLab, Northampton, MA, USA). Tm values represent the melting temperature of the DNA with and without complexes.
To solve the problem of the mode of iridium-DNA binding, covalent and non-covalent, DNA melting experiments were conducted. […] The Tm of the tested solution was determined as the transition midpoint of the melting curve by monitoring the maximum of the ellipticity and absorbance as a function of temperature ranging from 35 to 95 °C. […]

The nature of data set [7]: glutathione deactivation experiment (Ellman method). Format: biochemical. The settings on record: after 28 h incubation. The method, then:
as §1
Comparing similar data of cell viability and IC50 for both iridium(III) complexes with GSH deactivation results, some correlation was observed.

A short description of data set [8]: catalytic oxidation of NADH to NAD+ (UV-Vis). Format: biochemical. The settings on record: complex 1 µM, NADH 100 µM, 50% MeOH/50% H2O, 37 °C, 9 h. The method, then:
The reaction of analyzed complexes (1 µM) with NADH (100 µM) in 50% MeOH/50% H2O (V:V) was examined by UV-Vis spectroscopy at 37 °C after various time intervals (0.5–9 h). The turnover number (TON) was calculated from the difference in NADH concentration after 9 h divided by the concentration of analyzed iridium complexes. The concentration of NADH was obtained using the extinction coefficient ε339 = 6220 M^−1cm^−1.
Figure 12 UV-Vis spectra for the catalytic oxidation of NADH (100 μM) to NAD^+ in the presence of complexes (1 μM) over a 9 h period in 50% MeOH/50% H2O (V:V) (inset: wavelength absorbance changes from 315-360 nm).

Data set [9] has as its system breast adenocarcinoma (MCF-7) cell line. Kind of data set: in vitro cytotoxicity, SRB assay, MCF-7. The settings on record: concentration of 10 μg/mL. Type of data set: cell-based. The method, then: as §2
Data set [10] is described as follows: in vitro cytotoxicity, SRB assay, normal BALB/3T3. Type of data set: cell-based, mouse. The settings on record: mouse, BALB/3T3 normal mouse fibroblast cells; compound concentration 10 μg/mL; normal cell line. As to the method:
as §2

The subject of data set [11] is normal mouse fibroblast (BALB/3T3) cell line. Particulars: read-out: IC50 against normal BALB/3T3; cited from earlier work.
Setting [12] is: compound concentration 10 μg/mL.

T1 sequence (P02768 25-609): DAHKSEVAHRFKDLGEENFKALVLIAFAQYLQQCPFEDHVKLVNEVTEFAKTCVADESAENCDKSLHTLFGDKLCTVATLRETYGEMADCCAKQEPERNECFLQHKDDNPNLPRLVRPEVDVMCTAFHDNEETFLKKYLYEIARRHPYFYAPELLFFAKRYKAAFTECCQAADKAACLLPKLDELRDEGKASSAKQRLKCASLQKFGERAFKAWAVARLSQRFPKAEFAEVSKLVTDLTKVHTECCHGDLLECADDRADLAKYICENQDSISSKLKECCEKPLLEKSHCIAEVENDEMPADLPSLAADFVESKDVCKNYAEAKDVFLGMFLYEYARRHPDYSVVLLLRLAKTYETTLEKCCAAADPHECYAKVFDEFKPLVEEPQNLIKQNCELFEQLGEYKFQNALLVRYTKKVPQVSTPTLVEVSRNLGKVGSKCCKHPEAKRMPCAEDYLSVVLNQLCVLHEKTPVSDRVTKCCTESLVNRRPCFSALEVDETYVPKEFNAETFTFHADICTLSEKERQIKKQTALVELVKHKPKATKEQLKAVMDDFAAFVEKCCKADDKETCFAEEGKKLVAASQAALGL

Broadly, the log P is a log measure of how a compound divides between an organic and an aqueous phase. For the molecule “[(η^6-p-cymene)RuCl(py2CO)]PF6 [complex 1]”, the “log P” value in data set [1] is −1.44 ± 0.11. Besides, the “IC50 against MV-4-11” value in data set [2] (MV-4-11 cell line) was 49.8 µg/mL. Moreover, in data set [2] (setting [12]), the “Cell viability [%] MV-4-11” value was determined as 83%. Moreover, in [3], the “α-helical structure of HSA under the influence of complex” value (“α-helical structure of HSA” for short) is 51%. The HSA binding constant in data set [4] is given as 3.22 × 10^5. Moreover, the “inhibition of cell proliferation, LoVo” value in [5] is listed as 1.4%.

Turning to [(η^5-Cp)IrCl(py2CO)]PF6 [complex 2], in [1], the “log P” value is recorded as −1.14 ± 0.06. Further, the “IC50 against MV-4-11” value in [2] (MV-4-11 cell line) is listed as 40.2 µg/mL. Moreover, the “Cell viability [%] MV-4-11” value in data set [2] (setting [12]) came out at 68%. Further, the “Cell viability [%] BALB/3T3” value in [6] amounted to 100%. Moreover, the “decrease of melting temperature (Tm) of CT-DNA” value in the data set with CT-DNA is “approximately 0.5 °C”. For the same molecule, the “concentration of unreacted GSH remaining” value in data set [7] is 37 µM. Moreover, in [8], the “turnover number (TON)” value amounted to 3.3. For the same molecule, in data set [3], the “α-helical structure of HSA” value amounted to 52%. For the same molecule, in [9], the “inhibition of cell proliferation, MCF-7” value is on record as 3.7%. The HSA binding constant in [4] is listed as 1.52 × 10^5.

With `N.N.[Cl][Pt][Cl]` [cisplatin, reference compound], the “IC50 against MV-4-11” value in [2] (MV-4-11 cell line) is listed as 0.27 µg/mL.

In the case of NH4[IrCl4(py2CO)]·H2O [complex 3], in [1], the “log P” value is −0.30 ± 0.05. In addition, in data set [2] (MV-4-11 cell line), the “IC50 against MV-4-11” value worked out at 35.8 ± 13.9 µg/mL. Further, the “Cell viability [%] MV-4-11” value in data set [2] (setting [12]) is 68%. Moreover, the “Cell viability [%] BALB/3T3” value in data set [6] is 98.6%. Moreover, the “toxic effect against normal BALB/3T3” value in data set [6] (result in words) was “without a toxic effect; also recorded: without any toxic effect”. Further, the “decrease of melting temperature (Tm) of CT-DNA” value in the data set with CT-DNA is roughly 8.5 °C. Also, the “concentration of unreacted GSH remaining” value in data set [7] was found to be 37 µM. Moreover, the “turnover number (TON)” value in data set [8] stood at 4.8. In addition, in data set [3], the “α-helical structure of HSA” value stood at 55%. Besides, the HSA binding constant in data set [4] was 6.54 × 10^4.

The viability is a read-out of living cells in per cent, often relative to untreated cells. On to `O=C(c1ccccn1)c1ccccn1` [py2CO, di-2-pyridylketone, reference compound], for which the IC50 in data set [2] (Homo sapiens, MV4-11, MV-4-11 cell line, read-out: IC50 against MV-4-11) came to 62.9 µg/mL (≈ 341 µM). Also, the viability at 10 µg/mL in data set [2] (Homo sapiens, MV4-11, compound concentration 10 μg/mL) stood at 98%; in data set [10], 95.5%.

For the molecule [(η^6-p-cymene)RuCl(2,2′-PyBIm)]PF6, the IC50 in data set [11] was 43.7 µM.
